# Calls of active or inactive are those of the source. The calls are words filed in the database; no cut-off is given here.
# Key:
# [1] = system: Candida albicans; experiment: Antifungal activity against FCZ-resistant Candida albicans SC5314 assessed as growth inhibition measured after 48 hrs incubation by CLSI based micro-dilution broth method; type: functional
# [2] = system: Candida albicans; experiment: Antifungal activity against FCZ-resistant Candida albicans 10231 assessed as growth inhibition measured after 48 hrs incubation by CLSI based micro-dilution broth method; type: functional
# [3] = system: Cryptococcus neoformans; experiment: Antifungal activity against Cryptococcus neoformans 32609 assessed as growth inhibition measured after 48 hrs incubation by CLSI based micro-dilution broth method; type: functional
# [4] = system: Nakaseomyces glabratus; experiment: Antifungal activity against Candida glabrata 537 assessed as growth inhibition measured after 48 hrs incubation by CLSI based micro-dilution broth method; type: functional
# [5] = system: Pichia kudriavzevii; experiment: Antifungal activity against Candida krusei 4996 assessed as growth inhibition measured after 48 hrs incubation by CLSI based micro-dilution broth method; type: functional
# [6] = system: Candida parapsilosis; experiment: Antifungal activity against Candida parapsilosis 22019 assessed as growth inhibition measured after 48 hrs incubation by CLSI based micro-dilution broth method; type: functional; conditions: Lodderomyces parapsilosis
# [7] = system: Candida tropicalis; experiment: Antifungal activity against Candida tropicalis 8915 assessed as growth inhibition measured after 48 hrs incubation by CLSI based micro-dilution broth method; type: functional
# [8] = system: [Candida] auris; experiment: Antifungal activity against FCZ-resistant Candida auris 918 assessed as growth inhibition measured after 48 hrs incubation by CLSI based micro-dilution broth method; type: functional; conditions: Candidozyma auris
# [9] = system: [Candida] auris; experiment: Antifungal activity against FCZ-resistant Candida auris 919 assessed as growth inhibition measured after 48 hrs incubation by CLSI based micro-dilution broth method; type: functional; conditions: Candidozyma auris
# [10] = system: Candida albicans; experiment: Antifungal activity against FCZ-resistant Candida albicans strain 901 assessed as growth inhibition measured after 48 hrs incubation by CLSI based micro-dilution broth method; type: functional
# [11] = system: Candida albicans; experiment: Antifungal activity against FCZ-resistant Candida albicans strain 904 assessed as growth inhibition measured after 48 hrs incubation by CLSI based micro-dilution broth method; type: functional
# [12] = system: Candida albicans; experiment: Antifungal activity against FCZ-resistant Candida albicans strains assessed as growth inhibition measured after 48 hrs incubation by CLSI based micro-dilution broth method; type: functional
# [13] = system: Candida albicans; experiment: Antifungal activity against FCZ-resistant Candida albicans strains assessed as growth inhibition in presence of (E)-2-((4,6-Bis((4-fluorobenzyl)amino)-1,3,5-triazin-2-yl)hydrazineylidene)methyl)-4-nitrophenol measured after 48 hrs incubation by CLSI based micro-dilution broth method; type: functional
# [14] = system: Candida albicans; experiment: Antifungal activity against FCZ-resistant Candida albicans SC5314 assessed as growth inhibition at 4 microg/ml measured at 12 hrs incubation by time growth assay; type: functional, organism-based; conditions: dose 4.0 µg/ml
# [15] = system: Nakaseomyces glabratus; experiment: Antifungal activity against FCZ-resistant Candida glabrata 537 assessed as growth inhibition at 4 microg/ml measured at 12 hrs incubation by time growth assay; type: functional, organism-based; conditions: dose 4.0 µg/ml
# [16] = system: Cryptococcus neoformans; experiment: Antifungal activity against FCZ-resistant Cryptococcus neoformans 32609 assessed as growth inhibition at 1 microg/ml measured at 24 hrs incubation by time growth assay; type: functional, organism-based; conditions: dose 1.0 µg/ml
# [17] = system: Pichia kudriavzevii; experiment: Antifungal activity against FCZ-resistant Candida krusei 4996 assessed as growth inhibition at 32 microg/ml measured at 24 hrs incubation by time growth assay; type: functional, organism-based; conditions: dose 32.0 µg/ml
# [18] = target: T1, Lanosterol 14-alpha demethylase (Candida albicans (strain SC5314 / ATCC MYA-2876) (Yeast), UniProt P10613); experiment: Inhibition of CYP51 in Candida albicans SC5314 assessed as decrease in ergosterol biosynthesis at 4 microg/ml measured after 8 hrs by GC-MS analysis (reference value: 88.32%); parameters: scale not given: the % may be the effect or the level left; conditions: at 4 µg/mL
# [19] = target: T1, Lanosterol 14-alpha demethylase; experiment: Inhibition of CYP51 in Candida albicans SC5314 assessed as accumulation of eburicol at 4 microg/ml measured after 8 hrs by GC-MS analysis; conditions: dose 4 µg/ml
# [20] = target: T1, Lanosterol 14-alpha demethylase; experiment: Inhibition of CYP51 in Candida albicans SC5314 assessed as accumulation of obtusifoliol at 4 microg/ml measured after 8 hrs by GC-MS analysis; conditions: dose 4 µg/ml
# [21] = target: T1, Lanosterol 14-alpha demethylase; experiment: Inhibition of CYP51 in Candida albicans SC5314 assessed as accumulation of 14alpha-methylfecosterol at 4 microg/ml measured after 8 hrs by GC-MS analysis; conditions: dose 4 µg/ml
# [22] = Cytotoxicity against human HUVEC cells assessed as cell viability at 16 microg/ml measured after 24 hrs by CCK-8 assay relative to control; type: toxicity, cell-based; conditions: at 16 µg/mL, read-out: Activity
# [23] = Hemolytic activity in rabbit Red blood cell assessed as hemolysis rate at 64 microg/ml incubated for 1 hr; type: toxicity, cell-based, Oryctolagus cuniculus, Erythrocyte; conditions: red blood cells, at 64 µg/mL, read-out: Activity
# [24] = system: Candida albicans; experiment: In vivo antifungal activity against Candida albicans SC5314 infected in C57BL/6J mouse assessed as reduction in fungal burden in kidney at 0.5 mg/kg, po treated once a day for 2 days; type: functional, organism-based; conditions: time 2.0 day
# [25] = system: Candida albicans; experiment: Antifungal activity against FCZ-resistant Candida albicans strain 901 assessed as growth inhibition in presence of fluconazole measured after 48 hrs incubation by CLSI based micro-dilution broth method; type: functional
# [26] = system: Candida albicans; experiment: Synergistic antifungal activity against FCZ-resistant Candida albicans strain 901 assessed as fractional inhibitory concentration index measured after 48 hrs in presence of FCZ by CLSI based micro-dilution broth method; type: functional
# [27] = system: Candida albicans; experiment: Antifungal activity against FCZ-resistant Candida albicans strain 904 assessed as growth inhibition in presence of fluconazole measured after 48 hrs incubation by CLSI based micro-dilution broth method; type: functional
# [28] = system: Candida albicans; experiment: Synergistic antifungal activity against FCZ-resistant Candida albicans strain 904 assessed as fractional inhibitory concentration index measured after 48 hrs in presence of FCZ by CLSI based micro-dilution broth method; type: functional
# T1 sequence (P10613 whole entry): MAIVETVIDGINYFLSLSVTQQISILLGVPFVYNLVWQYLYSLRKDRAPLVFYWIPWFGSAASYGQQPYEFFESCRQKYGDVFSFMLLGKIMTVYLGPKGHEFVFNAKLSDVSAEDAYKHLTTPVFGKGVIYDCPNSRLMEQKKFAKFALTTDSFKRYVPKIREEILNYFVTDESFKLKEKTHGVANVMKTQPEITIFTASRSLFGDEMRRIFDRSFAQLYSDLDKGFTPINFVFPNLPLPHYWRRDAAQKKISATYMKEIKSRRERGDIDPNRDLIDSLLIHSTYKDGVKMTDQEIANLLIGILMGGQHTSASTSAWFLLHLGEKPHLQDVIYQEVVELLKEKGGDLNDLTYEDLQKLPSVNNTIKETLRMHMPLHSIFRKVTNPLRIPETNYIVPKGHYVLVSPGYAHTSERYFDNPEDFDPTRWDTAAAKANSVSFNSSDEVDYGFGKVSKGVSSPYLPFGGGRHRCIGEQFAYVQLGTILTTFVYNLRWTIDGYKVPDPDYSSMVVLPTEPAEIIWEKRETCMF
compound,measurement,setting,value
O=[N+]([O-])c1ccc(O)c(/C=N/Nc2nc(NCc3ccccc3)nc(NCc3ccc(F)cc3)n2)c1,MIC80,[1],2 µg/mL
same,MIC80,[2],8 µg/mL
same,MIC80,[3],2 µg/mL
same,MIC80,[4],0.5 µg/mL
same,MIC80,[5],1 µg/mL
same,MIC80,[6],4 µg/mL
same,MIC80,[7],2 µg/mL
same,MIC80,[8],4 µg/mL
same,MIC80,[9],16 µg/mL
O=[N+]([O-])c1ccc(O)c(/C=N/Nc2nc(NCc3ccco3)nc(NCc3ccco3)n2)c1,MIC80,[1],2 µg/mL
same,MIC80,[2],8 µg/mL
same,MIC80,[3],2 µg/mL
same,MIC80,[4],1 µg/mL
same,MIC80,[5],1 µg/mL
same,MIC80,[6],4 µg/mL
same,MIC80,[7],2 µg/mL
same,MIC80,[8],4 µg/mL
same,MIC80,[9],4 µg/mL
O=[N+]([O-])c1ccc(O)c(/C=N/Nc2nc(N3CCOCC3)nc(N3CCOCC3)n2)c1,MIC80,[1],> 64 µg/mL
same,MIC80,[2],> 64 µg/mL
same,MIC80,[3],> 64 µg/mL
same,MIC80,[4],> 64 µg/mL
same,MIC80,[5],> 64 µg/mL
same,MIC80,[6],> 64 µg/mL
same,MIC80,[7],> 64 µg/mL
same,MIC80,[8],> 64 µg/mL
same,MIC80,[9],> 64 µg/mL
COc1ccc(Nc2nc(NCc3ccc(F)cc3)nc(N/N=C/c3cc([N+](=O)[O-])ccc3O)n2)cc1,MIC80,[1],2 µg/mL
same,MIC80,[2],16 µg/mL
same,MIC80,[3],2 µg/mL
same,MIC80,[4],0.5 µg/mL
same,MIC80,[5],1 µg/mL
same,MIC80,[6],8 µg/mL
same,MIC80,[7],2 µg/mL
same,MIC80,[8],32 µg/mL
same,MIC80,[9],32 µg/mL
OC(Cn1cncn1)(Cn1cncn1)c1ccc(F)cc1F [FLUCONAZOLE],MIC80,[10],> 64 µg/mL
same,MIC80,[11],> 64 µg/mL
same,MIC80,[1],0.5 µg/mL
same,MIC80,[2],64 µg/mL
same,MIC80,[3],2 µg/mL
same,MIC80,[4],1 µg/mL
same,MIC80,[5],64 µg/mL
same,MIC80,[6],2 µg/mL
same,MIC80,[7],0.5 µg/mL
same,MIC80,[8],> 64 µg/mL
same,MIC80,[9],> 64 µg/mL
same,MIC80,[12],> 64 µg/mL
same,MIC80,[13],1 µg/mL
same,Activity,[14],Active
same,Activity,[15],inactive
same,Activity,[16],inactive
same,Activity,[17],Active
same,Activity,[18],2.91%
same,Activity,[19],Active
same,Activity,[20],Active
same,Activity,[21],Active
same,"viability at 24 h, 16 microg/ml",[22],82.8%
same,"hemolysis at 1 h, 64 microg/ml",[23],23.9%
same,Activity,[24],Active
COc1ccc(Nc2nc(N/N=C/c3cc([N+](=O)[O-])ccc3O)nc(Nc3ccc(OC)cc3)n2)cc1,MIC80,[1],2 µg/mL
same,MIC80,[2],16 µg/mL
same,MIC80,[3],2 µg/mL
same,MIC80,[4],2 µg/mL
same,MIC80,[5],1 µg/mL
same,MIC80,[6],> 64 µg/mL
same,MIC80,[7],4 µg/mL
same,MIC80,[8],> 64 µg/mL
same,MIC80,[9],> 64 µg/mL
O=[N+]([O-])c1cccc(/C=N/Nc2nc(NCc3ccc(F)cc3)nc(NCc3ccc(F)cc3)n2)c1O,MIC80,[10],2 µg/mL
same,MIC80,[25],0.25 µg/mL
same,fractional inhibitory concentration index (FICI),[26],0.25
same,MIC80,[11],1 µg/mL
same,MIC80,[27],0.25 µg/mL
same,fractional inhibitory concentration index (FICI),[28],0.38
same,MIC80,[1],8 µg/mL
same,MIC80,[2],32 µg/mL
same,MIC80,[3],1 µg/mL
same,MIC80,[4],1 µg/mL
same,MIC80,[5],2 µg/mL
same,MIC80,[6],2 µg/mL
same,MIC80,[7],2 µg/mL
same,MIC80,[8],4 µg/mL
same,MIC80,[9],32 µg/mL

# Source: ChEMBL document CHEMBL5528067, “From Synergy to Monotherapy: Discovery of Novel 2,4,6-Trisubstituted Triazine Hydrazone Derivatives with Potent Antifungal Potency In Vitro and In Vivo” (J Med Chem, 2024)
